Measurements taken from US20090176817A1, “Method of Treatment of Diarrhea-Predominant Irritable Bowel Syndrome in a Subject” (priority 2005, published 2009).
Marks after values point to notes of the source that are not given here.

Columns and labels:
clinical = details: male, human, in vivo; for CL renal: CLr; for half-life: T½
Description: Subjects were randomized to receive cilansetron 8 mg IV solution (30-minute infusion), cilansetron 8 mg oral solution, and a cilansetron 8 mg capsule during the three treatment periods, with a 23-day washout between periods. All doses were administered under fasted conditions. […] Table 2.7.1.2.3 presents descriptive statistics for the pharmacokinetic parameters of cilansetron capsule and oral solution, and the results of statistical comparisons between treatments (capsule versus solution). […] Median Tmax was also similar between the capsule and oral solution.
Subjects were randomized to receive cilansetron 8 mg IV solution (30-minute infusion), cilansetron 8 mg oral solution, and a cilansetron 8 mg capsule during the three treatment periods, with a 23-day washout between periods. All doses were administered under fasted conditions. […] Its low bioavailability, complete absorption from the GI tract, and its 4.5- to 5-fold higher apparent oral clearance in comparison to systemic clearance indicate that cilansetron is a high extraction drug and undergoes significant first pass metabolism on oral administration. Intersubject % CVs were higher for oral (47-73%) than for IV administration (19-20%), reflecting increased variability due to oral absorption. Intrasubject % CVs ranged from 37-47% following oral and IV administration.
Cilansetron concentrations in this study were also modeled using a standard 2-compartment model for the IV data and a 1-compartment model for the oral data (using TOPFIT 2.0). The results from modeling are compared to the results obtained from non-compartmental analysis in Table 2.7.2.3.10 below, for the oral and IV solution. The results obtained by the two methods are very similar.

[1] = system: healthy, elderly subjects; test: Study K.241.5014: colonic transit time, elderly, 8 mg TID; type: in vivo, human
From the text: The effect of cilansetron on gastric emptying time and colonic transit time has been studied in 1 clinical study in healthy young subjects and 2 studies in elderly subjects. For measurement of gastric emptying time, breath samples for the determination of the ^12C/^13C ratio were taken on the last day of each treatment period immediately after ingestion of a ^13C labeled meal. The patients' breath was collected in separate 15-minute intervals, for four hours in total. ^13CO2 measurements were performed with an isotope ratio mass spectrometer. The half-life (TK) and lag-time (Tlag), which describe the duration of gastric emptying, were used as the primary parameters to evaluate gastric emptying time. In all 3 studies, colonic transit time was measured by administration of radio-opaque markers for the last six days of each treatment period, followed by a single abdominal X-ray image at 24 hours after ingestion of the last set of markers. The numbers of markers within the colon were used to calculate segmental (right colon, left colon, and rectosigmoid) and total colonic transit time.
Studies K.241.5013 and K.241.5014 were randomized, double-blind, placebo-controlled, 2-way crossover studies in 8 healthy male and female elderly subjects, each (ITT population, aged 64-83 years in K.241.5013 and 66-84 years in K.241.5014). Elderly subjects were selected for these studies because they commonly suffer from constipation and it was of interest whether cilansetron would prolong gastrointestinal transit times in this population. Subjects received cilansetron 4 mg or placebo in Study K.241.5013 and cilansetron 8 mg or placebo in Study K.241.5014. Treatments were administered orally TID for 14 days during each period, with a 14-day washout between periods. The primary efficacy parameter was the total mean colonic transit time during each treatment and the secondary parameters were the segmental colonic transit times and the gastric emptying measurements. One-sided t-tests were used to compare efficacy parameters between the cilansetron and placebo treatments.

[2] = 8 mg TID oral 14 days, healthy elderly, Study K.241.5014, mean (SD)

For `Cc1nccn1C[C@H]1CCc2c(c3cccc4c3n2CCC4)C1=O` [Cilansetron, (R)-(−)-4,5,6,8,9,10-hexahydro-10-[(2-methyl-1H-imidazol-1-yl)methyl]-11H-pyrido-[3,2,1-jk]-carbazol-11-one], the “AUC(0-inf) ratio Oral Capsule/IV Soln” value (clinical) was 25 (19, 32) %, the “AUC(0-inf) ratio Oral Soln/IV Soln” value (clinical) was 26 (20, 34) % and the “AUC(0-last) ratio Oral Capsule/IV Soln” value (clinical) was 23 (18, 31) %. For the same molecule, the “AUC(0-last) ratio Oral Soln/IV Soln” value (clinical) was 24 (18, 32) %, the “Intrasubject % CV” value (clinical) was 37-47% and the “% Dose (urine)” value (clinical; iv) was 0.41 (96) %. For the same molecule, the “AUC(0-inf)” value (clinical; iv) was 222 (42) ng · h/mL, the CL (clinical; iv) was 619 (108) mL/min and the “Intersubject % CV” value (clinical; iv) was 19-20%. For the same molecule, the T½ (clinical; iv) was 1.33 (0.32) h, the Vss (clinical; iv) was 58 (11) L and the AUC(0-inf) (clinical; iv, 8 mg, AUC(0-inf)) was 234 ng·h/mL. The AUC(0-t) (clinical; iv, 8 mg, AUC(0-last)) was 228 ng·h/mL, the clearance (clinical; iv, 8 mg, CL) was 590 mL/min and the CL renal (clinical; iv, 8 mg) was 2.3 mL/min. For the same molecule, the clearance (clinical; iv, 8 mg, Systemic plasma clearance) was roughly 600 mL/min, the half-life (clinical; iv, 8 mg) was 1.33 h and the Vd (clinical; iv, 8 mg, Vss) was 55.6 L. For the same molecule, the Vd (clinical; iv, 8 mg, Vz) was 66.7 L, the AUC(0-inf) (clinical; iv, AUC (0-inf)) was 234 ng·h/mL and the clearance (clinical; iv, CL) was 590 mL/min. The Cmax (clinical; iv, Cmax) was 149 ng/mL, the Vd (clinical; iv, Steady-state volume of distribution (Vss)) was roughly 56 L and the Tmax (clinical; iv, Tmax) was 0.55 h. For the same molecule, the half-life (clinical; iv) was 1.33 h, the Vd (clinical; iv, Vss) was 56 L and the “AUC (0-inf) ratio capsule:oral solution” value (clinical; po) was 93%. For the same molecule, the “AUC (0-last) ratio capsule:oral solution” value (clinical; po) was 96%, the “AUC(0-inf)” value (clinical; po) was 69 (49) ng · h/mL and the “Apparent oral clearance higher than systemic clearance” value (clinical; po) was 4.5-5 fold. The Cmax (clinical; po) was 29 (18) ng/mL, the “Cmax ratio capsule:oral solution” value (clinical; po) was 88% and the “Intersubject % CV” value (clinical; po) was 47-73%. For the same molecule, the Tmax (clinical; po) was 0.76 (0.40) h, the T½ (clinical; po) was 1.14 (0.27) h and the bioavailability (clinical; po) was 25%. For the same molecule, the “AUC(0-inf)” value (clinical; po, 8 mg) was 73.8 (69) ng · h/mL, the “AUC(0-last)” value (clinical; po, 8 mg) was 69.3 (73) ng · h/mL and the CLr (clinical; po, 8 mg) was 2.37 (95) mL/min. For the same molecule, the Cmax (clinical; po, 8 mg) was 39.2 (67) ng/mL, the Tmax (clinical; po, 8 mg) was 0.83 (0.33, 1.25) h and the T½ (clinical; po, 8 mg) was 1.47 (21) h. For the same molecule, the Vz/F (clinical; po, 8 mg) was 308 (79) L, the AUC(0-inf) (clinical; po, 8 mg, AUC (0-inf)) was 66 ng·h/mL and the AUC(0-t) (clinical; po, 8 mg, AUC (0-last)) was 62.1 ng·h/mL. It also gave a CL renal (clinical; po, 8 mg) of 2.92 mL/min, a Cmax (clinical; po, 8 mg, Cmax) of 31.4 ng/mL and a Tmax (clinical; po, 8 mg, Tmax) of 1 h. For the same molecule, the half-life (clinical; po, 8 mg) was 1.28 h, the Vd/F (clinical; po, 8 mg, Vz/F) was 342 L and the AUC(0-inf) (clinical; po, AUC (0-inf)) was 74 ng·h/mL. For the same molecule, the Cmax (clinical; po, Cmax) was 39 ng/mL, the Tmax (clinical; po, Tmax) was 0.76 h and the half-life (clinical; po) was 1.47 h. For the same molecule, the “Total colonic transit time vs placebo” value ([1]; 8 mg TID) was “statistically significant increase”, the “Transit Times, Colonic Segments Left” value [1, 2] was 31.5 (30.5) hours and the “Transit Times, Colonic Segments Rectosigmoid” value [1, 2] was 16.7 (25.2) hours. The “Transit Times, Colonic Segments Right” value [1, 2] was 31.4 (21.0) hours and the “Transit Times, Colon Total” value ([1]; 8 mg TID oral 14 days, healthy elderly, Study K.241.5014, mean (SD), significant vs placebo (p < 0.05)) was 79.8 (49.8)* hours.
